The values below come from US20260048049A1, “METHODS FOR TREATING CANCER USING INHALED ANGIOGENESIS INHIBITOR” (Pulmatrix Operating Company, Inc., priority 2022, published 2026).

Molecules are shown by their SMILES. Like-named read-outs stand apart in the source and are kept apart here.

Data set [1] deals with Calu-3 cell line epithelial cell monolayers. Put plainly: cNGI integrated dissolution and permeability study. As to conditions: Calu-3 ALI monolayer, stage 4 of cNGI. It counts as in vitro ADME. The source says: This was done using the following equation: […]
Data set [2] in a line: UniDose POD in vitro dissolution of the impactor stage mass (ISM). It is filed as physicochemical. Particulars: 500 ml PBS pH 7.4 + 2.0% SDS, 37° C. The source says: The following in vitro dissolution model was used to understand the dissolution properties of itraconazole containing dry powder aerosols. The aerosol particles were collected at well-defined aerosol particle size distribution (APSD) cut-offs using the Next Generation Impactor (NGI) (Copley Scientific, UK), and then the dissolution behavior simulated using model lung fluid.
A UniDose™ (Nanopharm, Newport, United Kingdom) aerosol dose collection system combined with a modified next generation impactor (NGI) was used to uniformly deposit the impactor stage mass (ISM), which is defined as the dose collected on and below stage 2 of a next generation impactor, onto a suitable filter for subsequent dissolution studies in a USP V—Paddle over disk (POD) apparatus.
The aerosol dose was collected in the UniDose system. […] The UniDose collection system was used to uniformly deposit the whole impactor stage mass (i.e., below stage 2 of an NGI) onto a glass microfiber filter membrane, which can be seen as where the circles (representing particles or droplets) deposit. The filter was placed into a disk cassette and dissolution studies were undertaken using 500 ml PBS pH 7.4+2.0% SDS in a USP Apparatus II POD (Paddle Over Disk, USP V) at 37° C. For all studies, sink conditions were maintained within the vessel. […]

For data set [3] the following is noted: cited from earlier work.

For the compound `CCC(C)n1ncn(-c2ccc(N3CCN(c4ccc(OCC5COC(Cn6cncn6)(c6ccc(Cl)cc6Cl)O5)cc4)CC3)cc2)c1=O` (stereo not shown) [Pure ITZ, itraconazole], in data set [1], the “dissolution and permeability kinetics” value was “slower dissolution and permeability kinetics than the other formulations”. Moreover, the half-life in data set [2] stood at 1.7 h. Also, the figures for the plasma protein binding in data set [3] (capsules) and in data set [3] (oral solution) were 99.6% and 99.8%, respectively.

For orientation: half-life means the time in which the quantity being followed falls by half.
